Experimental data: US20070244071A1, “Treatment of proliferative diseases” (MOUNT SINAI HOSPITAL, priority 2006, published 2007)

How the values were obtained:
[1] = tested on: TGF-β induced Smad2/3 nuclear translocation; assay: TGF-β-dependent Smad2/3 nuclear translocation assay in NMuMG cells; format: cell-based, Murine
Protocol: NMuMG epithelial cells were plated in 96 well Coming tissue plates (Coming) at a density of 5000 cells/well in 100 μl of DMEM, 10% FBS, 10 μg/ml insulin (Gibco) for 24 h. The medium was replaced with 100 μl of DMEM, 10 μg/ml insulin, 0.2 mg/ml BSA (fraction V) for 18 h. Test compounds at 10 μM were added and cells were incubated for 60 min at 37° C. TGF-β1 (R&D System, Minneapolis, Minn.) was added at 50 pM and incubated for a further 50 min. Cells were then fixed with 4% paraformaldehyde in PBS for 15 min and washed 3 times in PBS. Cells were permeabilized with 100% methanol for 2 min, then washed 3 times with PBS, followed by the addition of 150 μl PBS, 10% FBS. Plates were stored overnight at 4° C. Anti-Smad2/3 or anti-phospho-Smad2 antibodies (Transduction Laboratories, San Jose, Calif.) diluted 1:1000 in PBS plus 10% FBS were added at 50 μl/well and the plates were incubated for 1 h at 20° C. […] The wells were washed 3 times with PBS and imaged and quantified on the Array Scan (Cellomics Inc., Pittsburgh, Pa.) using the cytoplasmic-nuclear translocation program. To measure Erk phosphorylation (Erk-p) and nuclear translocation, mouse anti-phospho-Erkl/2 (Thr202/Tyr204) (Sigma, St. Louis, Mo.) was added at 1/1000 in PBS plus 10% FBS for 1 h at 20° C. The nuclear-cytoplasmic difference was determined for 100 cells per well, generating a mean±SE for each condition.

[2] = tested on: non-transformed MvLu epithelial cells; assay: Cytotoxicity / cell growth assay, MvLu cells; format: cell-based; settings: increasing concentrations, DMEM 1% FBS, AlamarBlue, 72 h (source says 48 h)
Protocol: In brief, 1000 cells/well were seeded in 96 well plates and cultured for 24 h prior to the addition of DAM-1976. Viable cells were measured at 48 or 72 h by adding of either XTT or AlamarBlue with further incubation at 37° C. For the XTT assay, absorbance was measured at 500 nm, 4 h after addition of XTT. Fluorescence with excitation at 544 nm and emission at 590 nm were measured 24 h after addition of AlamarBlue.

[3] = tested on: DR26 cells; assay: Steady-state nuclear Smad2-p and Erk-p, DR26 cells; format: cell-based; settings: DR26 cells in culture, 1% FBS
[4] = tested on: Mgat5^+/+(2.6) mammary carcinoma cells; assay: Nuclear Smad2/3 and Erk-p (TGF-β / EGF sensitivity) in Mgat5^+/+(2.6) cells; format: cell-based, mice; settings: Mgat5^+/+(2.6) cells in culture, 1% FBS, steady state
[5] = tested on: MvLu cells; assay: Steady-state nuclear Smad2-p and Erk-p, MvLu cells; format: cell-based; settings: MvLu cells in culture, 1% FBS

## TGF-β: transforming growth factor-beta cytokine; TGF-β1 (R&D System) used as stimulus and growth comparator
[1]; 20 min after addition of cytokine, sustained until 50 min
  increase in nuclear Smad2/3 protein: 10 fold
[1]; dose of 50 pM
  saturation of Smad2/3 nuclear translocation: ~80%
[2]
  cell growth (cell number): inhibited
[3]
  basal nuclear Erk-p: a decline or no change
  basal nuclear Smad2-p: not altered
[4]
  basal nuclear Erk-p: enhanced
  basal nuclear Smad2-p: not altered
[5]
  basal nuclear Erk-p: a decline or no change
  basal nuclear Smad2-p: increased slightly
